Assay results taken from patent publication US7632829B2, “Diazepan derivatives” (Hoffmann-La Roche Inc., priority 2006, dated 2009).

Assays:
CCR2 = biological target: T1, CCR2 (Homo sapiens, UniProt P41597); assay: Chemotaxis assay (THP1-4x cells, migration towards 10 nM MCP-1); assay type: cell-based; conditions: inhibition of specific migration towards MCP-1
T1 construct: endogenous in cells; host or cells: THP1-4x cells
T1 sequence (P41597 1-360 isoform P41597-2): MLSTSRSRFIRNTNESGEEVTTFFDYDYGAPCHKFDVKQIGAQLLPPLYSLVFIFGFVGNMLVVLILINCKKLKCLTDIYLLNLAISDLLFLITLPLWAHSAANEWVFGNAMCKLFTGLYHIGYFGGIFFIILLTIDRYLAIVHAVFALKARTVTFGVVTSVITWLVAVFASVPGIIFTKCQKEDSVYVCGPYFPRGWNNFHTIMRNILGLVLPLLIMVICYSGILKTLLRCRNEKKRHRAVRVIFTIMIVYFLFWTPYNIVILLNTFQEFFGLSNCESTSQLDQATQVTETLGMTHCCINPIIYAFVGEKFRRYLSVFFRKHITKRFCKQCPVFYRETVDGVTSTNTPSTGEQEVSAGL
Experimental: The chemotaxis assay was performed with THP1-4x cells (Mirzadegan et al. 2000, The Journal of Biological Chemistry 275, 33, 25562-25571) similar as described earlier (Kruszynski et al. 2005, Journal of Peptide Science, in press.).
THP1-4x were cultured in RPMI1640, 2 mM L-glutamine, 0.15% Na-bicarbonat, 0.25% D-glucose, 10 mM Hepes, […] Na-pyruvate, […] β-mercaptoethanol, 10% FBS. Isolated cells were labelled in culture medium with 2.5 μg/ml calcein-AM (Molecular Probes) for 60 minutes at 37° C. Excess calcein was removed and cells were washed in D-PBS^++, 2% FBS.
Cells (1×10^5) with or without various concentrations of test compounds were loaded on the top of 8-μm polycarbonate filter in a 96-well-modified Boyden chamber (NeuroProbe). Beneath the filter 10 nM MCP-1 (R&D Systems; Roche) with or without test compounds or D-PBS^++, 2% FBS was placed in the corresponding well. The closed chambers were incubated for 1 hour at 37° C., 5% CO2. Remaining cells in the top compartment were wiped off and migrated cells were measured as fluorescence in the bottom compartment in a FLUOstar (Galaxy BMG) at 485 nm excitation and 530 nm emission. Specific migration is defined as total migration towards MCP-1 minus the background migration towards D-PBS^++, 2% FBS. The ability of test compounds to antagonize CCR2-chemotaxis is reported as concentration required to inhibit 50% of specific migration (IC50) towards MCP-1.

[1] = biological target: T2, human chemokine receptor 2 isoform B (Homo sapiens, UniProt P41597); assay: Calcium mobilization assay (FLIPR, CHOK1-CCR2B-A5 cells, 20 nM MCP-1); assay type: cell-based; conditions: Ca mobilisation assay, CCR2, antagonist activity vs 20 nM MCP-1
T2 construct: host or cells: CHOK1-CCR2B-A5 (CHO-K1)
T2 sequence (P41597 1-360 isoform P41597-2): T1 sequence (P41597 1-360 isoform P41597-2)
Outline: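 Antagonism read as IC50 against 20 nM MCP-1-evoked calcium rise (peak minus baseline Fluo-4 signal, FLIPR) in CCR2B-overexpressing CHO-K1 cells. Compounds were preincubated 20-30 min at 30 °C, with agonist activity recorded for 80 s on addition.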

Row | Compound | IC50 (CCR2) [nM] | IC50 [1] [nM]
1 | O=C(/C=C/c1ccc(Cl)c(Cl)c1)N1CCC(=O)N(CCCN2CCCC(O)C2)CC1 (racemic) [Example 81, (+/−)-1-[(E)-3-(3,4-Dichloro-phenyl)-acryloyl]-4-[3-(3-hydroxy-piperidin-1-yl)-propyl]-[1,4]diazepan-5-one] | 71 | 204
2 | O=C1NC(=O)C2(CCN(CCCN3CCN(C(=O)/C=C/c4ccc(Cl)c(Cl)c4)CCC3=O)CC2)N1 [Example 48, 8-(3-{4-[(E)-3-(3,4-Dichloro-phenyl)-acryloyl]-7-oxo-[1,4]diazepan-1-yl}-propyl)-1,3,8-triaza-spiro[4.5]decane-2,4-dione] | 13 | 64
3 | O=C(/C=C/c1ccc(Cl)c(Cl)c1)N1CCC(=O)N(CCCN2CCC(O)(c3ccccc3)CC2)CC1 [Example 59, 1-[(E)-3-(3,4-Dichloro-phenyl)-acryloyl]-4-[3-(4-hydroxy-4-phenyl-piperidin-1-yl)-propyl]-[1,4]diazepan-5-one] | 77 | 14
4 | O=C(/C=C/c1ccc(Cl)c(Cl)c1)N1CCC(=O)N(CCN2CCCC2)CC1 [Example 160, 1-[(E)-3-(3,4-Dichloro-phenyl)-acryloyl]-4-(2-pyrrolidin-1-yl-ethyl)-[1,4]diazepan-5-one] | 101 | 232
5 | O=C(/C=C/c1ccc(F)c(Cl)c1)N1CCC(=O)N(CCCCN2CCC(O)CC2)CC1 [Example 384] |  | 334
6 | O=C(/C=C/c1ccc(F)c(Cl)c1)N1CCC(=O)N(CCCCN2CCC(CO)CC2)CC1 [Example 386] |  | 380
7 | CC1C(O)CCCN1CCCCN1CCN(C(=O)C=Cc2ccc(F)c(Cl)c2)CCC1=O (stereo not shown) [Example 388] |  | 381
8 | O=C(/C=C/c1ccc(F)c(Cl)c1)N1CCC(=O)N(CCCCN2CCN(C3CC3)CC2)CC1 [Example 397] |  | 944
9 | COCCN1CCN(CCCCN2CCN(C(=O)/C=C/c3ccc(F)c(Cl)c3)CCC2=O)CC1 [Example 399] |  | 720
10 | COC(=O)NC1CCN(CCCCN2CCN(C(=O)/C=C/c3ccc(F)c(Cl)c3)CCC2=O)CC1 [Example 401] |  | 92
11 | COC(=O)N(C)C1CCN(CCCCN2CCN(C(=O)/C=C/c3ccc(F)c(Cl)c3)CCC2=O)CC1 [Example 402] |  | 291
12 | COCC1CCN(CCCCN2CCN(C(=O)/C=C/c3ccc(F)c(Cl)c3)CCC2=O)CC1 [Example 404] |  | 95
13 | CC1(CO)CCN(CCCCN2CCN(C(=O)C=Cc3ccc(Cl)c(F)c3)CCC2=O)CC1O (stereo not shown) [Example 411] |  | 199
14 | CC1(CO)CCN(CCCCN2CCN(C(=O)C=Cc3ccc(Cl)c(F)c3)CCC2=O)CC1O (stereo not shown) [Example 412] |  | 342
15 | O=C(/C=C/c1ccc(Cl)c(F)c1)N1CCC(=O)N(CCCCN2CCC3(CC3)C(O)C2)CC1 (stereo not shown) [Example 415] |  | 27
16 | O=C(/C=C/c1ccc(Cl)c(F)c1)N1CCC(=O)N(CCCCN2CCC3(CC3)C(O)C2)CC1 (stereo not drawn) [Example 416, 1-[(E)-3-(4-Chloro-3-fluoro-phenyl)-acryloyl]-4-[4-((-)-4-hydroxy-6-aza-spiro[2.5]oct-6-yl)-butyl]-[1,4]diazepan-5-one] |  | 11
17 | O=C(/C=C/c1ccc(Cl)c(Cl)c1)N1CCC(=O)N(CCCCN2CCC(CO)CC2)CC1 [Example 422] |  | 70
18 | COCC1CCCN(CCCCN2CCN(C(=O)/C=C/c3ccc(Cl)c(Cl)c3)CCC2=O)C1 (stereo not shown) [Example 423] |  | 16
19 | O=C(/C=C/c1ccc(Cl)c(Cl)c1)N1CCC(=O)N(CCCCN2CCC(O)CC2)CC1 [Example 424] |  | 119
20 | CC(C)N1CCN(CCCCN2CCN(C(=O)/C=C/c3ccc(Cl)c(Cl)c3)CCC2=O)CC1 [Example 436] |  | 746
21 | O=C(/C=C/c1ccc(Cl)c(Cl)c1)N1CCC(=O)N(CCCCN2CCN(C3CC3)CC2)CC1 [Example 437] |  | 463
22 | O=C(/C=C/c1ccc(Cl)c(Cl)c1)N1CCC(=O)N(CCCCN2CCN(C3CCCC3)CC2)CC1 [Example 438] |  | 369
23 | COCCN1CCN(CCCCN2CCN(C(=O)/C=C/c3ccc(Cl)c(Cl)c3)CCC2=O)CC1 [Example 439] |  | 263

Row | Compound | IC50 (CCR2) [nM] | IC50 [1] [nM]
24 | COC(=O)NC1CCN(CCCCN2CCN(C(=O)/C=C/c3ccc(Cl)c(Cl)c3)CCC2=O)CC1 [Example 441] |  | 22
25 | COC(=O)N(C)C1CCN(CCCCN2CCN(C(=O)/C=C/c3ccc(Cl)c(Cl)c3)CCC2=O)CC1 [Example 442] |  | 85
26 | COCC1CCN(CCCCN2CCN(C(=O)/C=C/c3ccc(Cl)c(Cl)c3)CCC2=O)CC1 [Example 444, 1-[(E)-3-(3,4-Dichloro-phenyl)-acryloyl]-4-[4-(4-methoxymethyl-3-piperidin-1-yl)-butyl]-[1,4]diazepan-5-one] |  | 32
27 | CC(=O)NC1CCN(CCCCN2CCN(C(=O)/C=C/c3ccc(Cl)c(Cl)c3)CCC2=O)CC1 [Example 453] |  | 33
28 | CN(CCO)CCCCN1CCN(C(=O)/C=C/c2ccc(Cl)c(Cl)c2)CCC1=O [Example 460] |  | 832
29 | CCN(CCO)CCCCN1CCN(C(=O)/C=C/c2ccc(Cl)c(Cl)c2)CCC1=O [Example 461] |  | 614
30 | CC(C)CN1CCN(CCCCN2CCN(C(=O)/C=C/c3ccc(Cl)c(Cl)c3)CCC2=O)CC1 [Example 465] |  | 376
31 | CC1(CO)CCN(CCCCN2CCN(C(=O)C=Cc3ccc(Cl)c(Cl)c3)CCC2=O)CC1O (stereo not shown) [Example 473] |  | 51
32 | C[C@@]1(CO)CCN(CCCCN2CCN(C(=O)/C=C/c3ccc(Cl)c(Cl)c3)CCC2=O)C[C@H]1O [Example 474] |  | 106
33 | O=C(/C=C/c1ccc(Cl)c(F)c1)N1CCC(=O)N(CCCN2CCC3(CC3)C(O)C2)CC1 (stereo not drawn) [Example 493, 1-[(E)-3-(4-Chloro-3-fluoro-phenyl)-acryloyl]-4-[3-((+)-4-hydroxy-6-aza-spiro[2.5]oct-6-yl)-propyl]-[1,4]diazepan-5-one] |  | 15
34 | O=C(/C=C/c1ccc(Cl)c(F)c1)N1CCC(=O)N(CCCN2CCC3(CC3)C(O)C2)CC1 (stereo not drawn) [Example 494, 1-[(E)-3-(4-Chloro-3-fluoro-phenyl)-acryloyl]-4-[3-((−)-4-hydroxy-6-aza-spiro[2.5]oct-6-yl)-propyl]-[1,4]diazepan-5-one] |  | 6
35 | O=C(/C=C/c1ccc(F)c(F)c1)N1CCC(=O)N(CCCN2CCC3(CC3)C(O)C2)CC1 (stereo not shown) [Example 495] |  | 19
36 | O=C(/C=C/c1cccc(Cl)c1)N1CCC(=O)N(CCCN2CCC3(CC3)C(O)C2)CC1 (stereo not drawn) [Example 496, 1-[(E)-3-(3-Chloro-phenyl)-acryloyl]-4-[3-((-)-4-hydroxy-6-aza-spiro[2.5]oct-6-yl)-propyl]-[1,4]diazepan-5-one] |  | 7
37 | O=C(/C=C/c1cnc(Cl)c(Cl)c1)N1CCC(=O)N(CCCN2CCC3(CC3)C(O)C2)CC1 (stereo not drawn) [Example 497, 1-[(E)-3-(5,6-Dichloro-pyridin-3-yl)-acryloyl]-4-[3-((-)-4-hydroxy-6-aza-spiro[2.5]oct-6-yl)-propyl]-[1,4]diazepan-5-one] |  | 26
38 | O=C(/C=C/c1ccc(Cl)cc1)N1CCC(=O)N(CCCN2CCC3(CC3)C(O)C2)CC1 (stereo not shown) [Example 498] |  | 11
39 | CC1(C)CCN(C[C@H](O)CCN2CCN(C(=O)/C=C/c3ccc(F)c(Cl)c3)CCC2=O)CC1O (stereo partly shown) [Example 500] |  | 451
40 | CC1(C)CCN(C[C@H](O)CCN2CCN(C(=O)/C=C/c3ccc(Cl)c(Cl)c3)CCC2=O)CC1O (stereo partly shown) [Example 501] |  | 155
41 | C[C@@H]1C[C@H](O)CN(C[C@H](O)CCN2CCN(C(=O)/C=C/c3ccc(F)c(Cl)c3)CCC2=O)C1 [Example 502] |  | 253
42 | C[C@@H]1C[C@H](O)CN(C[C@H](O)CCN2CCN(C(=O)/C=C/c3ccc(Cl)c(Cl)c3)CCC2=O)C1 [Example 503] |  | 51
43 | (rac)-1-[(E)-3-(3,4-Dichloro-phenyl)-acryloyl]-4-[2-hydroxy-3-(2-hydroxy-2-hydroxymethyl-piperidin-1-yl)-propyl]-[1,4]diazepan-5-one [Example 307] |  | 437
44 | (rac)-1-[(E)-3-(3,4-Dichloro-phenyl)-acryloyl]-4-[4-(3-hydroxy-5-methoxymethyl-piperidin-1-yl)-butyl]-[1,4]diazepan-5-one [Example 490] |  | 26
45 | (rac)-N-[1-(4-{4-[(E)-3-(3,4-Dichloro-phenyl)-acryloyl]-7-oxo-[1,4]diazepan-1-yl}-butyl)-piperidin-3-yl]-acetamide [Example 463] |  | 348
